Details: Liquid; for thermal diffusivity: Dynamic light scattering; for speed of sound: Brillouin light scattering

CCCCCCCCCC(=O)OCC [ethyl decanoate]
Details | speed of sound [m/s] | thermal diffusivity [m2/s]
295.34 K, 5000 kPa | – | 8.46e-08
295.57 K, 10000 kPa | – | 8.67e-08
295.72 K, 7000 kPa | – | 8.54e-08
296.25 K, 3000 kPa | – | 8.37e-08
296.31 K, 100 kPa | – | 8.23e-08
300.71 K, 7000 kPa | 1302.7 | –
300.78 K, 100 kPa | 1283.2 | –
300.78 K, 10000 kPa | 1329.5 | –
300.79 K, 3000 kPa | 1290.7 | –
300.81 K, 5000 kPa | 1295.7 | –
310.13 K, 10000 kPa | – | 8.5e-08
310.16 K, 5000 kPa | – | 8.28e-08
310.19 K, 7000 kPa | – | 8.37e-08
310.26 K, 3000 kPa | – | 8.19e-08
310.29 K, 100 kPa | – | 8.05e-08
310.58 K, 10000 kPa | 1301.3 | –
310.85 K, 100 kPa | 1248.4 | –
310.85 K, 5000 kPa | 1265 | –
310.93 K, 7000 kPa | 1271.5 | –
311.01 K, 3000 kPa | 1258.4 | –
320.9 K, 100 kPa | 1213.6 | –
320.91 K, 5000 kPa | 1233.3 | –
320.94 K, 3000 kPa | 1226.4 | –
320.98 K, 7000 kPa | 1241.3 | –
321 K, 10000 kPa | 1269.6 | –
324.97 K, 5000 kPa | – | 8.07e-08
325.08 K, 7000 kPa | – | 8.16e-08
325.11 K, 3000 kPa | – | 7.98e-08
325.16 K, 10000 kPa | – | 8.29e-08
325.23 K, 100 kPa | – | 7.85e-08
330.76 K, 3000 kPa | 1192.9 | –
330.77 K, 7000 kPa | 1210.4 | –
330.79 K, 10000 kPa | 1239.7 | –
330.81 K, 100 kPa | 1178.4 | –
330.87 K, 5000 kPa | 1199.5 | –
339.12 K, 7000 kPa | 1183 | –
339.89 K, 10000 kPa | – | 8.08e-08
340.05 K, 7000 kPa | – | 7.95e-08
340.11 K, 5000 kPa | – | 7.86e-08
340.16 K, 3000 kPa | – | 7.78e-08
340.18 K, 100 kPa | – | 7.64e-08
340.24 K, 100 kPa | 1144.5 | –
340.56 K, 10000 kPa | 1209.4 | –
340.76 K, 5000 kPa | 1166.4 | –
340.79 K, 3000 kPa | 1157.6 | –
350.12 K, 10000 kPa | 1179.1 | –
350.77 K, 3000 kPa | 1124.1 | –
350.89 K, 7000 kPa | 1145.9 | –
350.97 K, 5000 kPa | 1133.3 | –
350.99 K, 100 kPa | 1106.3 | –
355.14 K, 5000 kPa | – | 7.65e-08
355.19 K, 100 kPa | – | 7.44e-08
355.22 K, 7000 kPa | – | 7.74e-08
355.25 K, 10000 kPa | – | 7.86e-08
355.26 K, 3000 kPa | – | 7.57e-08
360.27 K, 10000 kPa | 1145.7 | –
360.32 K, 100 kPa | 1073.2 | –
360.51 K, 5000 kPa | 1102.5 | –
360.55 K, 7000 kPa | 1115.4 | –
360.75 K, 3000 kPa | 1090.9 | –
369.47 K, 10000 kPa | 1115.6 | –
369.75 K, 3000 kPa | – | 7.34e-08
369.77 K, 7000 kPa | – | 7.5e-08
369.78 K, 5000 kPa | – | 7.42e-08
369.78 K, 10000 kPa | – | 7.63e-08
369.85 K, 100 kPa | – | 7.21e-08
371.22 K, 100 kPa | 1035.6 | –
371.22 K, 7000 kPa | 1081.7 | –
371.31 K, 5000 kPa | 1068.1 | –
371.46 K, 3000 kPa | 1054.6 | –
379.56 K, 7000 kPa | 1055.4 | –
379.62 K, 5000 kPa | 1040.4 | –
379.78 K, 100 kPa | 1005.8 | –
379.78 K, 3000 kPa | 1026.4 | –
383.22 K, 10000 kPa | 1069.6 | –
384.3 K, 3000 kPa | – | 7.11e-08
384.31 K, 100 kPa | – | 6.99e-08
384.31 K, 7000 kPa | – | 7.28e-08
384.32 K, 5000 kPa | – | 7.2e-08
384.32 K, 10000 kPa | – | 7.4e-08
389.06 K, 100 kPa | 973.3 | –
389.19 K, 5000 kPa | 1010.9 | –
389.22 K, 7000 kPa | 1025 | –
389.32 K, 3000 kPa | 996.7 | –
392.15 K, 10000 kPa | 1042.5 | –
399.55 K, 10000 kPa | – | 7.23e-08
399.56 K, 3000 kPa | – | 6.95e-08
399.57 K, 7000 kPa | – | 7.11e-08
399.6 K, 100 kPa | – | 6.82e-08
399.6 K, 5000 kPa | – | 7.03e-08
400.76 K, 100 kPa | 933.3 | –
400.79 K, 3000 kPa | 958.4 | –
400.81 K, 7000 kPa | 989.3 | –
400.9 K, 5000 kPa | 973.6 | –
401.26 K, 10000 kPa | 1015 | –
408.81 K, 3000 kPa | 933.4 | –
409.55 K, 5000 kPa | 946.8 | –
410.3 K, 7000 kPa | 960.7 | –
410.85 K, 100 kPa | 900.2 | –
411.61 K, 10000 kPa | 983.4 | –
414.33 K, 10000 kPa | – | 7.01e-08
414.35 K, 3000 kPa | – | 6.73e-08
414.36 K, 7000 kPa | – | 6.89e-08
414.41 K, 5000 kPa | – | 6.81e-08
414.43 K, 100 kPa | – | 6.61e-08
419.6 K, 100 kPa | 871.4 | –
419.67 K, 3000 kPa | 899.1 | –
419.68 K, 5000 kPa | 915 | –
